{"source": "ChEMBL document CHEMBL3243969", "about": "“Synthesis and chemical carcinogen inhibitory activity of 2-tert-butyl-4-hydroxyanisole” (J Med Chem, 1979)", "key": {"Mus musculus [1]": {"system": "Mus musculus", "experiment": "Toxicity in ICR/Ha mouse forestomach assessed as body weight gained at 5 mg/kg administered through diet for 1 week prior to benzo[alpha]pyrene challenge and continued additional 2 days post last dose of benzo[alpha]pyrene relative to control", "format": "organism-based, Stomach", "set-up": "dose 5 mg/kg", "details": "in vivo, po"}, "Mus musculus [2]": {"system": "Mus musculus", "experiment": "Toxicity in ICR/Ha mouse forestomach assessed as diet intake at 5 mg/kg administered through diet for 1 week prior to benzo[alpha]pyrene challenge and continued additional 2 days post last dose of benzo[alpha]pyrene (reference value: 4.3 g/day)", "format": "organism-based, Stomach", "set-up": "dose 5 mg/kg", "details": "in vivo, po"}, "Mus musculus [3]": {"system": "Mus musculus", "experiment": "(§1) Antineoplastic activity in ICR/Ha mouse forestomach assessed as decrease in benzo[alpha]pyrene-induced tumor incidence at 5 mg/kg administered through diet for 1 week prior to benzo[alpha]pyrene challenge and continued additional 2 days post last dose of benzo[alpha]pyrene by dissecting microscopic analysis relative to control", "format": "functional, Stomach", "set-up": "scale not given: the % may be the effect or the level left"}, "Mus musculus [4]": {"system": "Mus musculus", "experiment": "as §1, with “inhibition of” for “decrease in”, “growth” for “incidence”", "format": "functional, Stomach"}, "[5]": {"experiment": "Antioxidant activity of the compound relative to control", "format": "functional"}}, "note": "Where “and” joins values, the source holds several entries; their conditions need not be identical. Identical values can stand only once."}
{"smiles": "COc1ccc(O)c(C(C)(C)C)c1.COc1ccc(O)cc1C(C)(C)C", "note": "[BUTYLATED HYDROXYANISOLE]", "values": [{"measurement": "Activity", "setting": "Mus musculus [1]", "result": "10.8 g and 7.4 g"}, {"measurement": "Activity", "setting": "Mus musculus [2]", "result": "3.6 g/day and 3.7 g/day"}, {"measurement": "Activity", "setting": "Mus musculus [3]", "result": "30% and 10%"}, {"measurement": "TGI", "setting": "Mus musculus [4]; 5 mg/kg", "result": 50, "unit": "%"}, {"measurement": "inhibition in vivo at 5 mg/kg", "setting": "Mus musculus [4]; Mus musculus, ICR/Ha, Stomach, read-out: TGI", "result": 70, "unit": "%"}, {"measurement": "fold change (FC)", "setting": "[5]", "result": "1.1 and 0.4"}]}
